Results published in ChEMBL document CHEMBL5335767, “Synthesis and study of new siderophore analog-ciprofloxacin conjugates with antibiotic activities against Pseudomonas aeruginosa and Burkholderia spp” (Eur J Med Chem, 2023).
≈ marks a conversion by molar mass, not a printed value.

Columns and labels:
[1] = tested on: Burkholderia thailandensis; test: Antibacterial activity against Burkholderia thailandensis E264TS32C12 under 1 uM FeCl3 medium by CLSI protocol based microdilution method; type: functional
[2] = tested on: Burkholderia pseudomallei; test: Antibacterial activity against Burkholderia pseudomallei BPS2020IRBA004 under muller hinton medium by CLSI protocol based microdilution method; type: functional
[3] = tested on: Burkholderia pseudomallei; test: Antibacterial activity against Burkholderia pseudomallei BPS2020IRBA002 under succinate minimum medium after 48 hrs by CLSI protocol based microdilution method; type: functional
[4] = tested on: Burkholderia pseudomallei; test: Antibacterial activity against Burkholderia pseudomallei BPS2020IRBA001 under succinate minimum medium by CLSI protocol based microdilution method; type: functional
Lipid bilayer = test: Binding affinity to bacterial inner membrane mimic PE/PG/CL/PC (60:20:10:10) assessed as maximum insertion pressure
[5] = tested on: Burkholderia pseudomallei; test: Antibacterial activity against Burkholderia pseudomallei BPS2020IRBA003 under 1 uM FeCl3 medium by CLSI protocol based microdilution method; type: functional
[6] = tested on: Burkholderia pseudomallei; test: Antibacterial activity against Burkholderia pseudomallei BPS2020IRBA003 under succinate minimum medium by CLSI protocol based microdilution method; type: functional
[7] = tested on: Burkholderia pseudomallei; test: Antibacterial activity against Burkholderia pseudomallei BPS2020IRBA002 under 1 uM FeCl3 medium by CLSI protocol based microdilution method; type: functional
Pseudomonas aeruginosa [8] = test: Antibacterial activity against Pseudomonas aeruginosa PAD07 under succinate minimum medium by CLSI protocol based microdilution method; type: functional
Pseudomonas aeruginosa [9] = test: Antibacterial activity against Pseudomonas aeruginosa PAD07 under 1 uM FeCl3 medium by CLSI protocol based microdilution method; type: functional
[10] = tested on: Burkholderia thailandensis; test: Antibacterial activity against Burkholderia thailandensis E264TS32C12 under succinate minimum medium by CLSI protocol based microdilution method; type: functional
[11] = tested on: Burkholderia thailandensis; test: Antibacterial activity against Burkholderia thailandensis E264TS32C10 under succinate minimum medium after 48 hrs by CLSI protocol based microdilution method; type: functional
[12] = tested on: Burkholderia thailandensis; test: Antibacterial activity against Burkholderia thailandensis E264 under 1 uM FeCl3 medium by CLSI protocol based microdilution method; type: functional
HepG2 [13] = test: Cytotoxicity against human HepG2 cells at 28 ug/ml after 48 hrs by CellTiter-Glo luminescent cell viability assay; type: toxicity, cell-based; conditions: hepg2, 48 h, dose 28 µg/ml
[14] = tested on: Burkholderia pseudomallei; test: Antibacterial activity against Burkholderia pseudomallei K96243 under succinate minimum medium after 48 hrs by CLSI protocol based microdilution method; type: functional
[15] = tested on: Burkholderia pseudomallei; test: Antibacterial activity against Burkholderia pseudomallei BPS2020IRBA003 under muller hinton medium by CLSI protocol based microdilution method; type: functional
[16] = tested on: Burkholderia thailandensis; test: Antibacterial activity against Burkholderia thailandensis E264 under muller hinton medium by CLSI protocol based microdilution method; type: functional
[17] = tested on: Burkholderia pseudomallei; test: Antibacterial activity against Burkholderia pseudomallei BPS2020IRBA005 under 1 uM FeCl3 medium after 48 hrs by CLSI protocol based microdilution method; type: functional
Pseudomonas aeruginosa [18] = test: Antibacterial activity against Pseudomonas aeruginosa PAO1 under 1 uM FeCl3 medium by CLSI protocol based microdilution method; type: functional
[19] = tested on: Burkholderia thailandensis; test: Antibacterial activity against Burkholderia thailandensis E264TS32C12 under muller hinton medium by CLSI protocol based microdilution method; type: functional
[20] = tested on: Burkholderia pseudomallei; test: Antibacterial activity against Burkholderia pseudomallei K96243 under muller hinton medium by CLSI protocol based microdilution method; type: functional
[21] = tested on: Burkholderia thailandensis; test: Antibacterial activity against Burkholderia thailandensis E264 under succinate minimum medium by CLSI protocol based microdilution method; type: functional
Pseudomonas aeruginosa [22] = test: Antibacterial activity against Pseudomonas aeruginosa AM85 under succinate minimum medium by CLSI protocol based microdilution method; type: functional
[23] = tested on: Burkholderia thailandensis; test: Antibacterial activity against Burkholderia thailandensis E264TS32C47 under muller hinton medium by CLSI protocol based microdilution method; type: functional
Pseudomonas aeruginosa [24] = test: Antibacterial activity against Pseudomonas aeruginosa PAO1 under muller hinton medium by CLSI protocol based microdilution method; type: functional
Pseudomonas aeruginosa [25] = test: Antibacterial activity against Pseudomonas aeruginosa AM85 under muller hinton medium by CLSI protocol based microdilution method; type: functional
Lipopolysaccharide (LPS) = test: Binding affinity to Pseudomonas aeruginosa lipopolysaccharide assessed as maximum insertion pressure
[26] = tested on: Burkholderia thailandensis; test: Antibacterial activity against Burkholderia thailandensis E264TS32C47 under 1 uM FeCl3 medium by CLSI protocol based microdilution method; type: functional
[27] = tested on: Burkholderia pseudomallei; test: Antibacterial activity against Burkholderia pseudomallei BPS2020IRBA005 under muller hinton medium by CLSI protocol based microdilution method; type: functional
[28] = tested on: Burkholderia thailandensis; test: Antibacterial activity against Burkholderia thailandensis E264TS32C10 under muller hinton medium by CLSI protocol based microdilution method; type: functional
[29] = tested on: Burkholderia pseudomallei; test: Antibacterial activity against Burkholderia pseudomallei BPS2020IRBA002 under muller hinton medium by CLSI protocol based microdilution method; type: functional
Pseudomonas aeruginosa [30] = test: Antibacterial activity against Pseudomonas aeruginosa AM85 under 1 uM FeCl3 medium by CLSI protocol based microdilution method; type: functional
[31] = tested on: Burkholderia pseudomallei; test: Antibacterial activity against Burkholderia pseudomallei K96243 under 1 uM FeCl3 medium by CLSI protocol based microdilution method; type: functional
Pseudomonas aeruginosa [32] = test: Antibacterial activity against Pseudomonas aeruginosa PAO1 under succinate minimum medium by CLSI protocol based microdilution method; type: functional
[33] = tested on: Burkholderia pseudomallei; test: Antibacterial activity against Burkholderia pseudomallei BPS2020IRBA001 under 1 uM FeCl3 medium by CLSI protocol based microdilution method; type: functional
[34] = tested on: Burkholderia pseudomallei; test: Antibacterial activity against Burkholderia pseudomallei BPS2020IRBA001 under muller hinton medium by CLSI protocol based microdilution method; type: functional
Pseudomonas aeruginosa [35] = test: Antibacterial activity against Pseudomonas aeruginosa PAD07 under muller hinton medium by CLSI protocol based microdilution method; type: functional
[36] = tested on: Burkholderia pseudomallei; test: Antibacterial activity against Burkholderia pseudomallei BPS2020IRBA005 under succinate minimum medium after 48 hrs by CLSI protocol based microdilution method; type: functional
[37] = tested on: Burkholderia thailandensis; test: Antibacterial activity against Burkholderia thailandensis E264TS32C47 under succinate minimum medium by CLSI protocol based microdilution method; type: functional
[38] = tested on: Burkholderia thailandensis; test: Antibacterial activity against Burkholderia thailandensis E264TS32C10 under 1 uM FeCl3 medium by CLSI protocol based microdilution method; type: functional
[39] = Stability in aqueous solution after 1 months; type: physicochemical; conditions: buffer, 730 h
[40] = tested on: Burkholderia pseudomallei; test: Antibacterial activity against Burkholderia pseudomallei K96243 under succinate minimum medium by CLSI protocol based microdilution method; type: functional
[41] = Antibacterial activity against Burkholderia pseudomallei BPS2020IRBA005 under 1 uM FeCl3 medium by CLSI protocol based microdilution method; type: functional; conditions: Burkholderia thailandensis
[42] = tested on: Burkholderia thailandensis; test: Antibacterial activity against Burkholderia thailandensis E264TS32C10 under succinate minimum medium by CLSI protocol based microdilution method; type: functional
[43] = tested on: Burkholderia pseudomallei; test: Antibacterial activity against Burkholderia pseudomallei BPS2020IRBA002 under succinate minimum medium by CLSI protocol based microdilution method; type: functional
[44] = tested on: Burkholderia pseudomallei; test: Antibacterial activity against Burkholderia pseudomallei BPS2020IRBA005 under succinate minimum medium by CLSI protocol based microdilution method; type: functional
HepG2 [45] = test: Cytotoxicity against human HepG2 cells at 25 ug/ml after 48 hrs by CellTiter-Glo luminescent cell viability assay; type: toxicity, cell-based; conditions: hepg2, 48 h, dose 25 µg/ml

For `CC(OC(=O)c1cccc(O)c1O)OC(=O)N1CCN(c2cc3c(cc2F)c(=O)c(C(=O)O)cn3C2CC2)CC1` (centres undefined), the MIC [1] was 16 mg/L (≈ 28.8 µM), the MIC [2] was 32 mg/L (≈ 57.6 µM) and the MIC [3] was 8 mg/L (≈ 14.4 µM). The MIC [4] was 2 mg/L (≈ 3.6 µM), the Activity (Lipid bilayer) was 44 mN/meter and the MIC [5] was 16 mg/L (≈ 28.8 µM). For the same compound, the MIC [6] was 8 mg/L (≈ 14.4 µM), the MIC [7] was 8 mg/L (≈ 14.4 µM) and the MIC (Pseudomonas aeruginosa [8]) was 0.25 mg/L (≈ 0.45 µM). For the same compound, the MIC (Pseudomonas aeruginosa [9]) was 2 mg/L (≈ 3.6 µM), the MIC [10] was 4 mg/L (≈ 7.2 µM) and the MIC [11] was 32 mg/L (≈ 57.6 µM). The MIC [12] was 8 mg/L (≈ 14.4 µM), the Activity (HepG2 [13]) was “Non-Toxic” and the MIC [14] was 2 mg/L (≈ 3.6 µM). It also gave an MIC [15] of 32 mg/L (≈ 57.6 µM), an MIC [16] of 32 mg/L (≈ 57.6 µM) and an MIC [17] of 16 mg/L (≈ 28.8 µM). For the same compound, the MIC (Pseudomonas aeruginosa [18]) was 1 mg/L (≈ 1.8 µM), the MIC [19] was 64 mg/L (≈ 115 µM) and the MIC [20] was 8 mg/L (≈ 14.4 µM). The MIC [21] was 8 mg/L (≈ 14.4 µM), the MIC (Pseudomonas aeruginosa [22]) was > 128 mg/L and the MIC [23] was 32 mg/L (≈ 57.6 µM). The MIC (Pseudomonas aeruginosa [24]) was 1 mg/L (≈ 1.8 µM), the MIC (Pseudomonas aeruginosa [25]) was > 128 mg/L and the Activity (Lipopolysaccharide (LPS)) was 30 mN/meter. For the same compound, the MIC [26] was 8 mg/L (≈ 14.4 µM), the MIC [27] was 128 mg/L (≈ 230 µM) and the MIC [28] was > 128 mg/L. For the same compound, the MIC [29] was 32 mg/L (≈ 57.6 µM), the MIC (Pseudomonas aeruginosa [30]) was > 128 mg/L and the MIC [31] was 4 mg/L (≈ 7.2 µM). The MIC (Pseudomonas aeruginosa [32]) was 1 mg/L (≈ 1.8 µM), the MIC [33] was 32 mg/L (≈ 57.6 µM) and the MIC [34] was 128 mg/L (≈ 230 µM). The MIC (Pseudomonas aeruginosa [35]) was 0.25 mg/L (≈ 0.45 µM), the MIC [36] was 8 mg/L (≈ 14.4 µM) and the MIC [37] was 4 mg/L (≈ 7.2 µM). The MIC [38] was 32 mg/L (≈ 57.6 µM) and the Stability [39] was “Stable”.

With `O=C(O)c1cn(C2CC2)c2cc(N3CCN(C(=O)c4ccc(O)c(O)c4Cl)CC3)c(F)cc2c1=O` the MIC [1] was 128 mg/L (≈ 255 µM), the MIC [40] was 32 mg/L (≈ 63.8 µM) and the MIC [2] was > 128 mg/L. For the same compound, the MIC [4] was 128 mg/L (≈ 255 µM), the MIC [5] was > 128 mg/L and the MIC [6] was 128 mg/L (≈ 255 µM). The MIC [41] was > 128 mg/L, the MIC [7] was > 128 mg/L and the MIC (Pseudomonas aeruginosa [8]) was 1 mg/L (≈ 1.99 µM). For the same compound, the MIC [42] was > 128 mg/L, the MIC (Pseudomonas aeruginosa [9]) was 16 mg/L (≈ 31.9 µM) and the MIC [43] was > 128 mg/L. The MIC [10] was 128 mg/L (≈ 255 µM), the MIC [12] was 64 mg/L (≈ 128 µM) and the MIC [44] was > 128 mg/L. The Activity (HepG2 [45]) was “Non-Toxic”, the MIC [15] was 128 mg/L (≈ 255 µM) and the MIC [16] was 128 mg/L (≈ 255 µM). For the same compound, the MIC (Pseudomonas aeruginosa [18]) was 16 mg/L (≈ 31.9 µM), the MIC [19] was > 128 mg/L and the MIC [20] was 64 mg/L (≈ 128 µM). The MIC [21] was 128 mg/L (≈ 255 µM), the MIC (Pseudomonas aeruginosa [22]) was > 128 mg/L and the MIC [23] was 128 mg/L (≈ 255 µM). The MIC (Pseudomonas aeruginosa [24]) was 32 mg/L (≈ 63.8 µM), the MIC (Pseudomonas aeruginosa [25]) was > 128 mg/L and the MIC [26] was 128 mg/L (≈ 255 µM). For the same compound, the MIC [27] was > 128 mg/L, the MIC [28] was > 128 mg/L and the MIC [29] was > 128 mg/L. The MIC (Pseudomonas aeruginosa [30]) was > 128 mg/L, the MIC [31] was 16 mg/L (≈ 31.9 µM) and the MIC (Pseudomonas aeruginosa [32]) was 16 mg/L (≈ 31.9 µM). The MIC [33] was 128 mg/L (≈ 255 µM), the MIC [34] was > 128 mg/L and the MIC (Pseudomonas aeruginosa [35]) was 32 mg/L (≈ 63.8 µM). For the same compound, the MIC [37] was 128 mg/L (≈ 255 µM) and the MIC [38] was > 128 mg/L.
